Reference: ChEMBL document CHEMBL1201862, “PubChem BioAssay data set” (2004)
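In this assay, cells in 96-well plates receive the compound at five concentrations for 48 hours. Endpoints are linearly interpolated between the surrounding concentrations. At the GI50, growth is halved.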 The source made the active and inactive calls. Rule as the data show it: active = GI50 up to about 1.1 µM and inactive = higher.

Experiments:
Assay in all cases: NCI-60 cell line screen, 48 h
CAKI-1 = test system: CAKI-1
A549 = test system: A549
MOLT-4 = test system: MOLT-4
CCRF-CEM = test system: CCRF-CEM
RXF 393 = test system: RXF 393
TK-10 = test system: TK-10
HCC 2998 = test system: HCC 2998
OVCAR-4 = test system: OVCAR-4
NCI-H522 = test system: NCI-H522
NCI-H23 = test system: NCI-H23
SN12C = test system: SN12C
OVCAR-3 = test system: OVCAR-3
OVCAR-5 = test system: OVCAR-5
IGROV-1 = test system: IGROV-1
NCI-H460 = test system: NCI-H460
UO-31 = test system: UO-31
HOP-92 = test system: HOP-92

Measured: GI50

COc1ccc(/C=C/C(=O)c2sc(NC(=S)NC(=O)c3ccc(Cl)cc3)nc2C)cc1OC
inactive: CAKI-1 75.9 µM | A549 43 µM | MOLT-4 27.2 µM | CCRF-CEM 26.2 µM | RXF 393 95.5 µM | TK-10 > 100 µM | HCC 2998 > 100 µM | OVCAR-4 52.5 µM | NCI-H522 > 10 µM | NCI-H23 33.5 µM | SN12C 36.6 µM | OVCAR-3 38.4 µM | OVCAR-5 > 100 µM | IGROV-1 43.1 µM | NCI-H460 84.7 µM | UO-31 64 µM

O=C(c1ccco1)N(C(=S)N1CCN(c2ccccn2)CC1)C1CCCCC1
inactive: CAKI-1 > 100 µM | A549 > 100 µM | MOLT-4 83.4 µM | CCRF-CEM > 100 µM | RXF 393 > 100 µM | TK-10 > 100 µM | OVCAR-4 > 100 µM | NCI-H522 > 100 µM | NCI-H23 > 100 µM | HOP-92 > 100 µM | SN12C > 100 µM | OVCAR-3 > 100 µM | OVCAR-5 > 100 µM | IGROV-1 > 100 µM | NCI-H460 > 100 µM | UO-31 83.4 µM

COc1cc(CNc2nc3ccc(C(F)(F)F)cc3nc2-c2ccccc2)cc(OC)c1OC
inactive: CAKI-1 14.3 µM | A549 20 µM | MOLT-4 4.4 µM | CCRF-CEM 15.3 µM | TK-10 27.1 µM | HCC 2998 38.8 µM | OVCAR-4 19.4 µM | NCI-H522 11.5 µM | NCI-H23 27.9 µM | SN12C 29.6 µM | OVCAR-3 26.4 µM | OVCAR-5 > 100 µM | IGROV-1 67.3 µM | NCI-H460 34.1 µM | UO-31 5.93 µM

NC(=S)N/N=C1/C(=O)N(c2ccccc2)C(=O)C1C(=O)Nc1ccccc1 (stereo not drawn)
inactive: CAKI-1 > 100 µM | A549 > 100 µM | MOLT-4 > 100 µM | RXF 393 > 100 µM | TK-10 > 100 µM | HCC 2998 > 100 µM | OVCAR-4 > 100 µM | NCI-H522 > 100 µM | NCI-H23 > 100 µM | HOP-92 > 100 µM | SN12C > 100 µM | OVCAR-3 > 100 µM | OVCAR-5 > 100 µM | IGROV-1 > 100 µM | NCI-H460 > 100 µM | UO-31 > 100 µM

COc1ccc(C(C#N)NNc2nc(C)cc(O)n2)cc1OC (stereo not drawn)
inactive: CAKI-1 > 100 µM | A549 > 100 µM | MOLT-4 > 100 µM | CCRF-CEM > 100 µM | RXF 393 > 100 µM | TK-10 > 100 µM | OVCAR-4 > 100 µM | NCI-H522 > 100 µM | NCI-H23 > 100 µM | HOP-92 > 100 µM | SN12C > 100 µM | OVCAR-3 > 100 µM | OVCAR-5 > 100 µM | IGROV-1 > 100 µM | NCI-H460 > 100 µM | UO-31 > 100 µM

NC(=O)CN(CC(N)=O)C(N)=O
inactive: CAKI-1 > 100 µM | A549 > 100 µM | MOLT-4 > 100 µM | CCRF-CEM > 100 µM | RXF 393 > 100 µM | TK-10 > 100 µM | OVCAR-4 > 100 µM | NCI-H522 > 100 µM | NCI-H23 > 100 µM | HOP-92 > 100 µM | OVCAR-3 > 100 µM | OVCAR-5 > 100 µM | IGROV-1 > 100 µM | NCI-H460 > 100 µM | UO-31 > 100 µM

CC(=O)N1c2ccccc2C2=CC3C4C(=O)N(c5ccccc5)C(=O)C4C21C1C(=O)N(c2ccccc2)C(=O)C31 (stereo not drawn)
inactive: CAKI-1 48.3 µM | A549 32.4 µM | MOLT-4 30.8 µM | CCRF-CEM 16.2 µM | TK-10 > 100 µM | HCC 2998 20.7 µM | NCI-H23 48.2 µM | HOP-92 > 100 µM | SN12C 42.7 µM | OVCAR-5 55.1 µM | IGROV-1 75.7 µM | NCI-H460 16.8 µM | UO-31 48.3 µM

CC(=O)O[C@H]1CCC2[C@@H]3CCC4Nc5c(cnn5-c5ccccc5)C[C@]4(C)C3CC[C@@]21C (stereo partly drawn)
inactive: CAKI-1 3.2 µM | A549 17.5 µM | MOLT-4 6.93 µM | CCRF-CEM 7.08 µM | RXF 393 5.65 µM | TK-10 19.2 µM | HCC 2998 9.55 µM | OVCAR-4 21.4 µM | NCI-H522 14.7 µM | NCI-H23 4.83 µM | SN12C 19.1 µM | OVCAR-3 6.92 µM | OVCAR-5 17.4 µM | IGROV-1 20.7 µM | NCI-H460 15.8 µM | UO-31 11 µM

COc1ccc2c(c1)C(CCN)C(=O)N2 (stereo not drawn)
inactive: CAKI-1 > 100 µM | A549 > 100 µM | MOLT-4 > 100 µM | CCRF-CEM > 100 µM | TK-10 > 100 µM | HCC 2998 > 100 µM | OVCAR-4 > 100 µM | NCI-H23 > 100 µM | HOP-92 > 100 µM | OVCAR-3 > 100 µM | OVCAR-5 > 100 µM | IGROV-1 > 100 µM | NCI-H460 > 100 µM

CN1CC(=O)N2Cc3ccccc3-n3cccc3C2C1 (stereo not drawn)
inactive: CAKI-1 > 100 µM | A549 > 100 µM | RXF 393 > 100 µM | TK-10 > 100 µM | HCC 2998 > 100 µM | OVCAR-4 > 100 µM | NCI-H23 > 100 µM | SN12C > 100 µM | OVCAR-3 > 100 µM | OVCAR-5 > 100 µM | IGROV-1 > 100 µM | NCI-H460 > 100 µM | UO-31 > 100 µM

COc1ccc(C2=C(Cl)c3cc(OC)c(OC)cc3C2Cl)cc1OC (stereo not drawn)
inactive: CAKI-1 14.7 µM | A549 19.5 µM | MOLT-4 3.82 µM | CCRF-CEM 4.32 µM | RXF 393 14.2 µM | TK-10 19.4 µM | OVCAR-4 18.2 µM | NCI-H23 15.9 µM | HOP-92 24.8 µM | SN12C 17.9 µM | OVCAR-3 15.1 µM | OVCAR-5 16.3 µM | IGROV-1 20.9 µM | NCI-H460 16.5 µM | UO-31 16.3 µM

CC(=O)OCC(OC(C)=O)C(OC(C)=O)C(OC(C)=O)C(=O)CNn1c(-c2ccccc2)nc2ccc(Br)cc2c1=O (stereo not drawn)
inactive: CAKI-1 87.5 µM | A549 > 100 µM | MOLT-4 93.3 µM | CCRF-CEM > 100 µM | RXF 393 > 100 µM | OVCAR-4 > 100 µM | NCI-H522 46.8 µM | NCI-H23 > 100 µM | SN12C > 100 µM | OVCAR-3 > 100 µM | OVCAR-5 > 100 µM | NCI-H460 > 100 µM | UO-31 > 100 µM

CCc1ccccc1-n1c2nc(=O)n(C)c(=O)c-2nc2ccccc21
inactive: CAKI-1 20 µM | A549 8.24 µM | MOLT-4 13.2 µM | CCRF-CEM 11.2 µM | RXF 393 13.7 µM | TK-10 8.95 µM | HCC 2998 11.1 µM | OVCAR-4 4.89 µM | NCI-H522 13.6 µM | NCI-H23 4.03 µM | SN12C 13.5 µM | OVCAR-3 2.49 µM | OVCAR-5 20 µM | IGROV-1 17.5 µM | NCI-H460 4.55 µM | UO-31 21.5 µM
